Ten molecules from PubChem BioAssay (NCI) can be followed below.

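Following 48 hours of exposure in 96-well plates, responses at five concentrations were used to interpolate endpoints linearly. At the GI50, growth is halved. TGI is the concentration that stops growth completely.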 Bounds are passed on as bounds.

Among the test systems are ACHN renal; HCT-116 colon; HS 578T breast; M14 melanoma; RPMI-8226 leukemia; SF-268 CNS; SK-OV-3 ovarian; SW-620 colon; LOX IMVI melanoma; MOLT-4 leukemia.
Common to all, as to assay: DTP human tumour cell line panel, 48 h

Take `Cn1cc(-c2csc(-c3cn(C)c4ccccc34)n2)c2cnccc21`: the GI50 (in general, the concentration at which growth is held to half of that of the control) with ACHN renal is 1.8 µM; with HCT-116 colon it was 0.925 µM; with HS 578T breast, 2.16 µM; with M14 melanoma, 1.51 µM; in the assay with RPMI-8226 leukemia, 1.76 µM; with SF-268 CNS it was 1.92 µM. Further, the figures for the GI50 in the assay on SK-OV-3 ovarian and in the assay on SW-620 colon were 2.52 µM and 1.85 µM, respectively. In addition, the TGI (in general, the concentration at which net growth stops) was determined as 3.19 µM in the assay with ACHN renal; 2.19 µM in the assay with HCT-116 colon; 4.65 µM in the assay with HS 578T breast; 2.96 µM in the assay with M14 melanoma; 4.06 µM with RPMI-8226 leukemia; 3.92 µM in the assay with SF-268 CNS. In addition, the TGI came out at 6.33 µM in the assay on SK-OV-3 ovarian and 3.63 µM in the assay on SW-620 colon.
In the case of `O=C(c1ccc2ccccc2c1)c1c(C(F)(F)F)n([O-])c2ccc(Cl)cc2[n+]1=O`, the GI50 in the assay on ACHN renal was 1.63 µM; with HCT-116 colon it was 1 µM; in the assay on HS 578T breast, 1.79 µM; in the assay on LOX IMVI melanoma, 0.195 µM; in the assay on M14 melanoma it was 1.64 µM; with RPMI-8226 leukemia, 0.373 µM. Further, the values for the GI50 in the assay with SF-268 CNS, in the assay with SK-OV-3 ovarian and in the assay with SW-620 colon were 1.04 µM, 1.75 µM and 1.41 µM, respectively. Further, the TGI came out at 2.98 µM in the assay with ACHN renal; 2.33 µM in the assay with HCT-116 colon; 3.72 µM in the assay on HS 578T breast; 0.375 µM in the assay on LOX IMVI melanoma; 3.05 µM in the assay on M14 melanoma; 1.66 µM with RPMI-8226 leukemia. Also, the values for the TGI in the assay with SF-268 CNS, with SK-OV-3 ovarian and with SW-620 colon were 2.33 µM, 3.13 µM and 2.7 µM, respectively.
In the case of `Cn1c2ccccc2c2c(=O)c3ccccc3[nH]c21`, the GI50 is 31.1 µM in the assay on ACHN renal; 17.6 µM in the assay with HCT-116 colon; more than 100 µM in the assay with HS 578T breast; 44.2 µM with LOX IMVI melanoma; more than 100 µM in the assay with MOLT-4 leukemia; 29.6 µM in the assay with RPMI-8226 leukemia. The GI50 in the assay with SF-268 CNS was 25 µM; with SW-620 colon it was 40.7 µM. Also, the TGI in the assay on ACHN renal is more than 100 µM; in the assay with HCT-116 colon, 52.9 µM; with HS 578T breast, more than 100 µM; in the assay on LOX IMVI melanoma it was more than 100 µM; in the assay on MOLT-4 leukemia, more than 100 µM; in the assay with RPMI-8226 leukemia it was 91.7 µM. For the same molecule, the concentration for total growth inhibition (TGI) with SF-268 CNS and in the assay with SW-620 colon was more than 100 µM each time.
Regarding `OC(CN1CC1)C(O)CN1CC1` (centres undefined), the GI50 in the assay with ACHN renal, in the assay on HCT-116 colon, in the assay on HS 578T breast, with LOX IMVI melanoma, in the assay with M14 melanoma and with MOLT-4 leukemia was more than 50 µg/mL throughout. For the same molecule, the GI50 with SF-268 CNS and in the assay with SW-620 colon was more than 50 µg/mL throughout. Also, the TGI with ACHN renal, in the assay with HCT-116 colon, in the assay with HS 578T breast, with LOX IMVI melanoma, in the assay with M14 melanoma and in the assay with MOLT-4 leukemia was more than 50 µg/mL each time. Also, the TGI with SF-268 CNS and with SW-620 colon was more than 50 µg/mL in each case.
In the case of `CCN(CC)CCNC(=O)c1cn2ncnc(Oc3ccc(NC(=O)Nc4ccc(Cl)c(C(F)(F)F)c4)c(F)c3)c2c1C`, the GI50 in the assay on ACHN renal was 1.68 µM; in the assay with HCT-116 colon it was 1.48 µM; in the assay with HS 578T breast, 1.52 µM; in the assay with LOX IMVI melanoma, 1.3 µM; with M14 melanoma, 1.58 µM; with SF-268 CNS, 1.92 µM. The figures for the GI50 with SK-OV-3 ovarian and with SW-620 colon were 1.66 µM and 1.91 µM, respectively. Further, the TGI in the assay with ACHN renal came to 3.04 µM; in the assay with HCT-116 colon, 3.18 µM; in the assay on HS 578T breast, 4.29 µM; with LOX IMVI melanoma, 2.62 µM; with M14 melanoma it was 3.24 µM; with SF-268 CNS it was 3.74 µM. For the same molecule, the TGI turned out to be 3.26 µM in the assay on SK-OV-3 ovarian and 3.5 µM in the assay on SW-620 colon.
For `O=c1c2c3c(sc2n2c(-c4cc(-c5ccccc5)nn4-c4ccccc4)nnc2n1Cc1ccccc1)CCCC3`, the GI50 was more than 100 µM with ACHN renal; 48 µM with HS 578T breast; more than 100 µM with LOX IMVI melanoma; more than 100 µM in the assay with SF-268 CNS; more than 100 µM with SK-OV-3 ovarian. Moreover, the TGI in the assay with ACHN renal, in the assay on HS 578T breast, in the assay with LOX IMVI melanoma, in the assay with SF-268 CNS and in the assay on SK-OV-3 ovarian was more than 100 µM throughout.
For the molecule `Cc1cc2c(Br)cc(Br)c(O)c2nc1C(=O)c1ccccc1`, the TGI in the assay on ACHN renal is more than 100 µM; in the assay on HCT-116 colon it was more than 72.8 µM; in the assay with HS 578T breast, more than 100 µM; in the assay on LOX IMVI melanoma, more than 86 µM; in the assay with M14 melanoma it was more than 60.2 µM; in the assay with MOLT-4 leukemia, more than 100 µM. In addition, the TGI in the assay with RPMI-8226 leukemia, in the assay with SF-268 CNS and with SW-620 colon was more than 100 µM in each case.
For the molecule `CCOC1Oc2ccccc2-c2oc(=O)c(Sc3ccc(C)cc3)cc21` (centres undefined), the GI50 in the assay on ACHN renal is 28.8 µM; with HS 578T breast it was 34.5 µM; in the assay on LOX IMVI melanoma it was 24 µM; with M14 melanoma, 48.2 µM; in the assay on MOLT-4 leukemia, 6.73 µM; in the assay on RPMI-8226 leukemia it was 9.66 µM. Further, the results for the GI50 in the assay on SF-268 CNS, in the assay with SK-OV-3 ovarian and in the assay with SW-620 colon were 27.9 µM, 20.5 µM and 37.5 µM, respectively. Further, the TGI was more than 100 µM in the assay on ACHN renal; more than 100 µM with HS 578T breast; more than 100 µM in the assay on LOX IMVI melanoma; more than 100 µM in the assay with M14 melanoma; 28.3 µM with MOLT-4 leukemia; 35.5 µM with RPMI-8226 leukemia. For the same molecule, the values for the concentration for total growth inhibition (TGI) in the assay with SF-268 CNS, with SK-OV-3 ovarian and in the assay with SW-620 colon were 75.8 µM, more than 100 µM and more than 100 µM, respectively.
As to `COc1ccc(-c2nnc(N3CCN(C(=O)CN4CCN(c5ccc(OC)cc5)CC4)CC3)nc2-c2ccc(OC)cc2)cc1`, the GI50 was 18.1 µM in the assay on ACHN renal; 1.71 µM in the assay on HCT-116 colon; 2.84 µM in the assay on HS 578T breast; 2.6 µM in the assay on M14 melanoma; 1.63 µM with MOLT-4 leukemia; 2.37 µM with RPMI-8226 leukemia. For the same molecule, the values for the GI50 in the assay on SF-268 CNS and with SK-OV-3 ovarian were 3.62 µM and 20.8 µM, respectively. In addition, the TGI in the assay with ACHN renal turned out to be 50.8 µM; with HCT-116 colon, 3.11 µM; with HS 578T breast, 9.2 µM; with M14 melanoma, 6.28 µM; in the assay with MOLT-4 leukemia, 3.8 µM; in the assay with RPMI-8226 leukemia it was 6.5 µM. Moreover, the figures for the TGI in the assay with SF-268 CNS and in the assay with SK-OV-3 ovarian were 14.2 µM and 45 µM, respectively.
As to `C=CCSc1nc2ccccc2c(=O)n1Cc1ccco1`, the TGI in the assay on ACHN renal, in the assay with HCT-116 colon, in the assay on HS 578T breast, in the assay on LOX IMVI melanoma, in the assay with M14 melanoma and with RPMI-8226 leukemia was more than 100 µM in each case. The TGI in the assay on SF-268 CNS, with SK-OV-3 ovarian and in the assay with SW-620 colon was more than 100 µM throughout.
